According to publication PMC10096453, “One-Pot Synthesis and Evaluation of Antioxidative Stress and Anticancer Properties of an Active Chromone Derivative” (Molecules, 2023):

Columns and labels:
[1] = tested on: HEK293 cells; experiment: Cell migration scratch assay, HEK293; assay type: cell-based; conditions: HEK293, 100 μM, 24 and 48 h
Procedure: (§1) Cell migration in the HEK293 and the HeLa cell lines was investigated. The assay was conducted to investigate cell maintenance after being damaged. The active samples from in vitro antioxidant activity were examined. Cells were grown in a 24-well plate until 80% confluence and treated with 2f and 2j for 24 or 48 h compared to the untreated control. The cells in each well were then scratched to create a wound area across the center of the plates using a plastic 20 μL pipette tip. Cell images were taken immediately, and the scratch area was measured at 0, 24, and 48 h. During the experiment, the percentage of wound area was tracked as an indirect assessment. Compared to the control, the percentage of empty area change at each time point was quantified with a Nikon eclipse Ts2R inverted microscope.
Figure 7 A scratch assay was performed to examine the migration ability of synthesized compounds 2f and 2j at 100 μM compared with untreated control. Representative pictures of the assay induce the migration of HEK cells using quercetin as a reference. Pictures were taken at the start of the experiment (0 h) 24 and 48 h later. Pictures of representative experiments are shown, and the relative migration of cells is represented with a bar graph; means ± SD (n = 3; *: p < 0.05 and **: p < 0.001, Turkey HSD), Scale bars represent 500 μm.

[2] = tested on: HeLa cells; experiment: Cell migration/invasion scratch assay, HeLa; assay type: cell-based; conditions: 100 μM, 24 h
Procedure: as §1, with “The active samples from in vitro antioxidant activity were examined.” left out
Pictures were taken at the start of the experiment (0 h) and 24 h later. […] Scale bars represent 500 μm.

[3] = ABTS radical cation scavenging assay; assay type: biochemical; conditions: for EC50: read-out: ABTS734nm EC50 ± SD
From the text: (§2) Three in vitro antioxidant assays (DPPH, FRAP, and ABTS) were utilized to evaluate the antioxidant property of the synthesized compounds. The DPPH (α, α-diphenyl-β-picrylhydrazyl) assay is the well-known approach to determine antioxidant activity using a stable free radical DPPH, measure the absorbance change, and calculate the absorbance change in the percentage of scavenging activity. […] For example, the ferric-tripyridyltriazine (Fe^3+-TPTZ, colorless) complex is reduced to ferrous tripyridyltriazine (Fe^2+-TPTZ) at low pH and introduces a blue color with maximum absorption at 593 nm. The change in absorbance is related to antioxidant activity. However, a significant limitation of these in vitro tests is the non-physiological measurement conditions (no enzymatic condition and no transition metal ion chelating activity); therefore, the results obtained may not reflect the antioxidant activity of the source material under the biological conditions that exist in humans and animals. The ABTS assay involves a more drastic radical that is chemically produced. The use of ABTS for antioxidant activity determination of hydrophilic and lipophilic pure compounds has attracted interest due to its solubility in organic and aqueous media and stability in a wide pH range [31].
The ABTS assay was prepared by reaction of 5 mL of a 7 mM aqueous ABTS (2,2′-azino-bis (3-ethylbenzthiazoline-6-sulphonic acid) solution and 2.45 mM potassium persulfate solution (K2S2O8). After preparation and storage in the dark for 16 h, the radical cation solution was further diluted in ethanol to absorb about 0.7 at 734 nm. Trolox and test sample solutions were prepared in stock solution with DMSO and diluted with ethanol. A solution of 100 μL of the sample was mixed with 100 μL of the ABTS reagent in a 96-well plate. The mixture was shaken in a dark place for 10 min and incubated at 37 °C for 20 min, and the absorbance was determined at 734 nm. Absorbance determinations were recorded immediately and not more than 1 h after adding the reagent. The solution without the sample was used as a blank. All the determinations were made in triplicate. The sample’s scavenging percentage was calculated from this equation: scavenging percentage = (Absorbance control − Absorbance sample) × 100/Absorbance control. EC50 values were calculated from the relationship curve of %scavenging versus sample concentration.

[4] = DPPH radical scavenging assay; assay type: biochemical; parameters: DPPH517nm % SA ± SD: dose or concentration left out as unconfirmed; conditions: for DPPH517nm % SA ± SD: mean of three measurements; for EC50: read-out: DPPH517nm EC50 ± SD
From the text: as §2
The DPPH method was followed and modified from a previous study. Trolox was used as a reference. The DPPH stock solution at a concentration of 0.625 mM was prepared in 50% ethanol and kept at 4 °C in the dark. On the day of the experiment, 0.208 mM fresh DPPH working solution was freshly prepared by further diluting with 50% ethanol. […] Each reaction was carried out in a 96-well plate, and 100 μL of test preparation and DPPH solution were added. The 96-well plate was then shaken well for 10 min and kept in the dark at room temperature for 20 min, and the absorbance was recorded at 515–517 nm. According to the method described, delocalization also results in a deep violet color and is quantified as a percentage of scavenging activity. % scavenging activity (SA) = 100 × (Asample − Ablank)/(Acontrol − Ablank)(1) where Acontrol and Asample are the absorbances of the test DPPH without and with a sample, respectively. Ablank is the absorbance of the solvent used. The EC50 values were calculated from the relationship curve of %SA versus sample concentration. The experiment was carried out at least in triplicate.

SMILES	Cell migration vs untreated [1]	Invasion of HeLa cells [2]	ABTS734nm % Scavenging at 500 µM [3] [%]	EC50 [3] [µM]	DPPH517nm % SA ± SD [4] [%]	EC50 [4] [µM]
O=C(c1ccccc1)c1c(-c2ccccc2)oc2c(O)c(O)ccc2c1=O [2f, 3-Benzoyl-7,8-dihydroxy-2-phenyl-4H-chromen-4-one]	significant induction of cell migration	significantly inhibited the invasion of HeLa cells	81.63 ± 1.80	10.2 ± 0.7	93.55 ± 3.20	34.1 ± 3.28
O=C(Oc1ccc2c(=O)c(C(=O)c3ccccc3)c(-c3ccccc3)oc2c1O)c1ccccc1 [2j, 3-Benzoyl-8-hydroxy-4-oxo-2-phenyl-4H-chromen-7-yl benzoate]	significant induction of cell migration	significantly inhibited the invasion of HeLa cells	>95	22.2 ± 0.39	92.88 ± 0.46	49.9 ± 11
O=c1c(O)c(-c2ccc(O)c(O)c2)oc2cc(O)cc(O)c12 [Quercetin, quercetin, reference compound]	significant induction of cell migration	significantly inhibited the invasion of HeLa cells	88.51 ± 0.80	11.4 ± 0.17	93.89 ± 2.04	18.3 ± 5.62
